Results: ChEMBL document CHEMBL1140636, “Targeting cytochrome P450 enzymes: a new approach in anti-cancer drug development” (Bioorg Med Chem, 2007)

What was measured:
Cytochrome P450 1B1 = biological target: T1, Cytochrome P450 1B1 (Homo sapiens, UniProt Q16678); assay: Inhibition of CYP1B1; type: ADME
T1 sequence (Q16678 whole entry): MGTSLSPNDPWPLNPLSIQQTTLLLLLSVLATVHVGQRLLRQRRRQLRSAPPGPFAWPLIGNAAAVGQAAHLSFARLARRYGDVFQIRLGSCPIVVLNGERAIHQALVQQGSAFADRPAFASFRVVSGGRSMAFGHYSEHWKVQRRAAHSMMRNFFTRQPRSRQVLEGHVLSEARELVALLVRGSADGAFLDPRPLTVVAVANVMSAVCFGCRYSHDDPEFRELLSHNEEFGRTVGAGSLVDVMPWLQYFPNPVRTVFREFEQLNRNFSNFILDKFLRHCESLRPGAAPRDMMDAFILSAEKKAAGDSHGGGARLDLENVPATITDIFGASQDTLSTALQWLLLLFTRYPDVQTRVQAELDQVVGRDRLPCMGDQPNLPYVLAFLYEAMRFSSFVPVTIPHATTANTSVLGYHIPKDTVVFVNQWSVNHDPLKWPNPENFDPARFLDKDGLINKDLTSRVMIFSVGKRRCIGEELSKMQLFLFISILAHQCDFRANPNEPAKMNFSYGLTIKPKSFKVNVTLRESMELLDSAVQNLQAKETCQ

Cytochrome P450 1A1 = biological target: T2, Cytochrome P450 1A1 (Homo sapiens, UniProt P04798); assay: Inhibition of CYP1A1; type: ADME
T2 sequence (P04798 whole entry): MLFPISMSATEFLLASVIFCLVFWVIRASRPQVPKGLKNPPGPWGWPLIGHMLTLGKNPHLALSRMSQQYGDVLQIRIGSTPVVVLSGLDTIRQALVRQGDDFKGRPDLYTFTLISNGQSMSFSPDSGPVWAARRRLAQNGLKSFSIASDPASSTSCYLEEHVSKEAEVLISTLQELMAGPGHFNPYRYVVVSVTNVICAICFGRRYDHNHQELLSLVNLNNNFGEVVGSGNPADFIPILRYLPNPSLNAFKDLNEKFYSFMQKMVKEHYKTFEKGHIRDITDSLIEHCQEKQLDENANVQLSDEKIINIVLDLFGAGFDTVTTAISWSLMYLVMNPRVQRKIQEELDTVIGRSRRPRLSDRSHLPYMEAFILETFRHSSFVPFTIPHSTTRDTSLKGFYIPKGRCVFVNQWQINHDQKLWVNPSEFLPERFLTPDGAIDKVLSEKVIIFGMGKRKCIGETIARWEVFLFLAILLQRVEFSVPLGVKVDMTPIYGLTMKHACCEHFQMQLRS

Cytochrome P450 1A2 = biological target: T3, Cytochrome P450 1A2 (Homo sapiens, UniProt P05177); assay: Inhibition of CYP1A2; type: ADME
T3 sequence (P05177 whole entry): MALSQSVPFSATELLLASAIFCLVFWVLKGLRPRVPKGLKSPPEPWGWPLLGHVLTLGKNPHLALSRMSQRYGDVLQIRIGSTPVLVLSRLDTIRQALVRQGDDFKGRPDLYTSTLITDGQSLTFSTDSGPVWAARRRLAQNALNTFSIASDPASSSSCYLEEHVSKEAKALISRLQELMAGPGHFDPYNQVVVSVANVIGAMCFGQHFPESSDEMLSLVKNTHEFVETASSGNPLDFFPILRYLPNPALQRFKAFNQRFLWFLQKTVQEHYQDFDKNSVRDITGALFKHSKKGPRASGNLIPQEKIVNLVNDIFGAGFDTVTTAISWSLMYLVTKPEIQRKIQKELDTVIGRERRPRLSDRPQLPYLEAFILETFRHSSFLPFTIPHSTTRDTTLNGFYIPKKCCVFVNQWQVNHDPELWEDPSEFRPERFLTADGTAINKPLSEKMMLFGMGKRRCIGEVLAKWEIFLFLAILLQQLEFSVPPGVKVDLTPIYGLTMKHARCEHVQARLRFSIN

[1] = biological target: T4, 1,25-dihydroxyvitamin D(3) 24-hydroxylase, mitochondrial (Homo sapiens, UniProt Q07973); assay: Inhibition of CYP24 in human keratinocytes; type: cell-based
T4 sequence (Q07973 whole entry): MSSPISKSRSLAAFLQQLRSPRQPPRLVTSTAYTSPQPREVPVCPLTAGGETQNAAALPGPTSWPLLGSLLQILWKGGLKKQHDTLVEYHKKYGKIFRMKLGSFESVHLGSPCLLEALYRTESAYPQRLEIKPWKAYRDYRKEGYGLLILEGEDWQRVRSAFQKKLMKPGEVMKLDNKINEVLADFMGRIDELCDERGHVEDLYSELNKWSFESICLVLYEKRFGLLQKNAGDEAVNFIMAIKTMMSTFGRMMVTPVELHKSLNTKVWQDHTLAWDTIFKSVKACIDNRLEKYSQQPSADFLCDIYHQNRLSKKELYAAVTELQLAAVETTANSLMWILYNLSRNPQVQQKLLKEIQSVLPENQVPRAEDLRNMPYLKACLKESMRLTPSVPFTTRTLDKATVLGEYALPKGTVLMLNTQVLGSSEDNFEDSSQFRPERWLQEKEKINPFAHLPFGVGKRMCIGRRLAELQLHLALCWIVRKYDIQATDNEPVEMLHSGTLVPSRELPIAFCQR

[2] = biological target: T5, 25-hydroxyvitamin D-1 alpha hydroxylase, mitochondrial (Homo sapiens, UniProt O15528); assay: Inhibition of CYP27B1 in human keratinocytes; type: cell-based
T5 sequence (O15528 whole entry): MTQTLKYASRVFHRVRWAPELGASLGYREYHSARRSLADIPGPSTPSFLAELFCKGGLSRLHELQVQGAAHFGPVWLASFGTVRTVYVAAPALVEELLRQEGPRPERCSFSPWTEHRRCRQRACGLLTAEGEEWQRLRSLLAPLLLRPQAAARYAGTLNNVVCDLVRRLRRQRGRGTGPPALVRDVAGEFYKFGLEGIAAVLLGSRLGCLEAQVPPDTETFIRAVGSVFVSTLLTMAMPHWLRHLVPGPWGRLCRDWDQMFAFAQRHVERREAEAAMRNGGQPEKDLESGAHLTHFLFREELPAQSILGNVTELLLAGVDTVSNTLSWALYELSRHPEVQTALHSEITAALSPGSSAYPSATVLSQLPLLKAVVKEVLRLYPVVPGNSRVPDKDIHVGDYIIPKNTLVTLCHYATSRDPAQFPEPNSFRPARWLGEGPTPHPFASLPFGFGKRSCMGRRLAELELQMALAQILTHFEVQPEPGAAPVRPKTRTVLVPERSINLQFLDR

[3] = biological target: T4, 1,25-dihydroxyvitamin D(3) 24-hydroxylase, mitochondrial; assay: Inhibition of CYP24
[4] = biological target: T5, 25-hydroxyvitamin D-1 alpha hydroxylase, mitochondrial; assay: Inhibition of CYP27B1
[5] = biological target: T6, Sterol 26-hydroxylase, mitochondrial (Homo sapiens, UniProt Q02318); assay: Inhibition of CYP27A1
T6 sequence (Q02318 whole entry): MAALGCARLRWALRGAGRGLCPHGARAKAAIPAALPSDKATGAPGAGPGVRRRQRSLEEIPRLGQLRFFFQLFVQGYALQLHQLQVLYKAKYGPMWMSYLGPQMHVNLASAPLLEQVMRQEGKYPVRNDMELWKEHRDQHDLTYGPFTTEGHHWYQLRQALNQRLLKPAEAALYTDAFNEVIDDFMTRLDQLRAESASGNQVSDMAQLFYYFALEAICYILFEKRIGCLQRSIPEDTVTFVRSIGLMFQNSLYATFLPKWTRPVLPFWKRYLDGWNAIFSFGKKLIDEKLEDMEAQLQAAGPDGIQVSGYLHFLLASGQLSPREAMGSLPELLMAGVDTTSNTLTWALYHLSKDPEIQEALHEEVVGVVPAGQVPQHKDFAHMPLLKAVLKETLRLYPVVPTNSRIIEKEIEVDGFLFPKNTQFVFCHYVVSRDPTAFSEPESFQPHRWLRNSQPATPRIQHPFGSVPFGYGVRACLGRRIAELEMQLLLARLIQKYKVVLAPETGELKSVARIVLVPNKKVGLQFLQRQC

Cytochrome P450 26A1 = biological target: T7, Cytochrome P450 26A1 (Homo sapiens, UniProt O43174); assay: Inhibition of CYP26
T7 sequence (O43174 whole entry): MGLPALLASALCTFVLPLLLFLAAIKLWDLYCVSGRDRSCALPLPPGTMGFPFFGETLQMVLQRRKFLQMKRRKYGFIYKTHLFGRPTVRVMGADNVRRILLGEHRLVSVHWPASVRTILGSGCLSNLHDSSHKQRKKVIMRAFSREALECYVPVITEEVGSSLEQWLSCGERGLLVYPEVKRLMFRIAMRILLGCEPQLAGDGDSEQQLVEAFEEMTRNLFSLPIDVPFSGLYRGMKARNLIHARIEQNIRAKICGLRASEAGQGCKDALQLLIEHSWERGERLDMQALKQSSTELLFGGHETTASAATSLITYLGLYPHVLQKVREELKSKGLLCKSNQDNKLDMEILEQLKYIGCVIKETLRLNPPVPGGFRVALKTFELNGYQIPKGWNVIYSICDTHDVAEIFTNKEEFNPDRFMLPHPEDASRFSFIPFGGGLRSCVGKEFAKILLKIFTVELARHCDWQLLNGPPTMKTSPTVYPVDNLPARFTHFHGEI

[6] = biological target: T8, Aryl hydrocarbon receptor (Homo sapiens, UniProt P35869); assay: Inhibition of aryl hydrocarbon receptor
T8 sequence (P35869 whole entry): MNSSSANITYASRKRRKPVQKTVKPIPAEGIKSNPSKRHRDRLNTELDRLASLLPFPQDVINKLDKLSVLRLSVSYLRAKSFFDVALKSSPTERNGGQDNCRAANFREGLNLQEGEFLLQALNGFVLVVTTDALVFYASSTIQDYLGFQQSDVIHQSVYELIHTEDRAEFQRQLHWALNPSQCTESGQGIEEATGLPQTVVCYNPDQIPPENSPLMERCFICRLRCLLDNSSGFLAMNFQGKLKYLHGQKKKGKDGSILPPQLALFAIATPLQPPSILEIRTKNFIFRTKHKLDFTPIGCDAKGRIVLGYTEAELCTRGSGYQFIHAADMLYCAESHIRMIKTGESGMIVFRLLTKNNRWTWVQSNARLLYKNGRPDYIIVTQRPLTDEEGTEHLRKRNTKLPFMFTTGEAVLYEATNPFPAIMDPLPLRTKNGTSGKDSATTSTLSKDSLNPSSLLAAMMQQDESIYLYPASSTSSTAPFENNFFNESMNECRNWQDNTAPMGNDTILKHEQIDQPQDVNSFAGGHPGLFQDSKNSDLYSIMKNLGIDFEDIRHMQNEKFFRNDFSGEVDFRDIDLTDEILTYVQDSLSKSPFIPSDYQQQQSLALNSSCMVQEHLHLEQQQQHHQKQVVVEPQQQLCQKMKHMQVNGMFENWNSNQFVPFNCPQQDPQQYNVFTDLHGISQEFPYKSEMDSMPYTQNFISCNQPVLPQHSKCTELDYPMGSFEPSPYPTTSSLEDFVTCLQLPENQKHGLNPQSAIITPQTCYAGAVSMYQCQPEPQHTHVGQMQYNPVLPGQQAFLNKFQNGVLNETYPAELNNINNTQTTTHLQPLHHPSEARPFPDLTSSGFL

[7] = Inhibition of cigarette smoke condensate-induced growth of immortalized human BEAS-2B cells by soft agar colony assay; type: functional

Row | SMILES | IC50 (Cytochrome P450 1B1) [nM] | IC50 (Cytochrome P450 1A1) [nM] | IC50 (Cytochrome P450 1A2) [nM] | also measured
1 | COc1cc(/C=C\c2cccs2)cc(OC)c1 | 2 | 61 | 11 | 
2 | CC#Cc1ccc2c(ccc3ccccc32)c1 | 30 | 150 | 60 | 
3 | O=C(NCC(c1ccccc1)n1ccnc1)c1ccc(-c2ccc(Cl)cc2)cc1 (stereo not drawn) |  |  |  | IC50 [1]: 15 nM; IC50 [2]: 616 nM
4 | C=C1/C(=C\C=C2/CCC[C@]3(C)C([C@H](C)CC[S+](=N)([O-])c4ccccc4)=CCC23)C[C@@H](O)C[C@@H]1O (stereo partly drawn) |  |  |  | IC50 [3]: 7.4 nM; IC50 [4]: 554 nM; IC50 [5]: > 1000 nM
5 | Clc1cccc(C(c2ccc3nc[nH]c3c2)N2C=NCC2)c1 (stereo not drawn) |  |  |  | IC50 (Cytochrome P450 26A1): 2200 nM
6 | O=c1c(O)c(-c2ccc(O)cc2)oc2cc(O)cc(O)c12 [KAEMPFEROL] |  |  |  | IC50 [6]: 28 nM; IC90 [7]: 10000 nM
7 | Clc1ccc(-c2cc(Cl)c(Cl)c(Cl)c2)cc1Cl [POLYCHLORINATED BIPHENYL 126] | 11 |  |  | 
8 | c1cc2ccc3cccc4ccc(c1)c2c34 [PYRENE] | 2 | 41 | 7 | 
